Laboratory results taken from patent US20230174608A1, “Polypeptide Derivative Having Dual Receptor Agonistic Action and Use Thereof” (TIANJIN INSTITUTE OF PHARMACEUTICAL RESEARCH CO., LTD., priority 2020, published 2023).
Marks after values point to notes of the source that are not given here. Values belong to the molecule of their own block, whether it stands above or below them. Where a SMILES comes first, the peptide text is derived from it.

Experiments:
[1] = tested on: diet-induced obesity (DIO) mice; assay: DIO mice, weight and blood glucose after multiple administrations at different doses; type: in vivo, C57BL/6N mice; conditions: for Fasting blood glucose (mmol/L) before the last administration / Blood glucose level (mmol/L) 0.5 h after glucose loading / Glycemic load reduction rate: Day 22; for Fasting blood glucose (mmol/L) before the last administration: fasted 16 h; for Blood glucose level (mmol/L) 0.5 h after glucose loading: glucose 1 g/kg intragastric 30 min after administration; for Glycemic load reduction rate: versus model control group; for Reduction rate of weight without fasting on day 21 compared to day 0: n=5
Text: 40 C57BL/6N mice were purchased from Beijing Vital River Laboratory Animal Technology Co., Ltd. Mice in a model group (n=35) were fed with H10060 high-fat diets to obtain diet-induced obesity (DIO) models, mice in a blank control group (n=5) were fed with standard diets, and all the mice were fed for 36 weeks. On the day of the first administration, the mice in the model group were randomly divided into 7 groups according to their weights (within a range of 45-60 g), i.e., a model control group, positive control groups (semaglutide at doses of 10 nmol/kg and 30 nmol/kg, respectively), and test compound groups (dgc005 and dgc016 at doses of 10 nmol/kg and 30 nmol/kg, respectively), 5 mice in each group. The positive control drug and the test compounds were respectively subcutaneously injected into each mouse in the positive control groups and the test compound groups every day, saline was subcutaneously injected into each mouse in the blank control group and the model control group, and the administration was performed for 22 days (the administration volume for each group was 0.005 mL/g weight). The mice were weighed before each administration, and 72-h food intake was weighed every three days. The mice fasted for 16 h before the last administration, and 30 min after administration, a glucose solution (1 g/kg, the administration volume was 0.01 mL/g weight) was intragastrically administered to each mouse for glucose tolerance test. Blood glucose levels were determined 0.5 h after glucose loading.

[2] = tested on: glucose loaded normal mice; assay: Glucose loading test on normal mice after single administration; type: in vivo, Kunming mice; conditions: for Blood glucose reduction rate (%): after glucose loading, versus model control group; for Blood glucose level after glucose loading: glucose 2.5 g/kg intragastric 60 min after administration, measured 30 min after loading; for Blood glucose level after glucose loading / Fasting blood glucose level: n=5; for Fasting blood glucose level: normal mice fasted 6 h, 30 nmol/kg group
Description: The hypoglycemic action of each compound of Example 1 was assessed by a glucose loading test on normal mice after single administration.
Method: Kunming mice (male, with a weight of 20-22 g) were acclimated in a barrier environment animal room for 3 days, divided into a blank control group, a model control group, a positive control group, and test compound groups, 5 mice in each group, and fasted for 6 h. Saline was administered to each mouse in the blank control group and the model control group, the compounds and a positive control drug were respectively administered to each mouse in the test compound groups and the positive control group at a dose of 30 nmol/kg, and the positive control drug was semaglutide. 60 min after administration, glucose was intragastrically administered to each mouse in the model control group, the positive control group, and the test compound groups at a dose of 2.5 g/kg (0.01 mL·g^−1 weight), distilled water was administered to each mouse in the blank control group, and blood glucose levels were determined 30 min after glucose loading.

GCGR = biological target: T1, GCGR (Homo sapiens, UniProt P47871); assay: GC receptor-mediated cAMP production in vitro; type: cell-based; conditions: HEK293 cell line stably expressing GCGR
T1 construct: expressed in transfected cells
T1 sequence (P47871 26-477, species assumed): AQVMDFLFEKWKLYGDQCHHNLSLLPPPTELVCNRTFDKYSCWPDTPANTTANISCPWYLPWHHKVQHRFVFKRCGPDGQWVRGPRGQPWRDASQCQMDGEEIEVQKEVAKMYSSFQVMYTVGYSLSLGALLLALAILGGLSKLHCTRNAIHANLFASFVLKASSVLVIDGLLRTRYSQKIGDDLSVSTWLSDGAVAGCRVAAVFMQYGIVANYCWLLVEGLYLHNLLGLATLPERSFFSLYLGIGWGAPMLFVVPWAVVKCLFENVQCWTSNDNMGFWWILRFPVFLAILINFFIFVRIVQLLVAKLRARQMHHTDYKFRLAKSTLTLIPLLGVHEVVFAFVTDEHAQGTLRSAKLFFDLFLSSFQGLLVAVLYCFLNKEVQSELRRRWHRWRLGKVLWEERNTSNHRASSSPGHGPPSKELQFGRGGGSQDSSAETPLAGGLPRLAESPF
Description: (§1) HEK293 cell line stably expressing GLP-1R or GCGR was used for screening GLP-1R and GCGR agonist.
(§2) Preparation of test sample: each compound was prepared into 100 μM stock solution, and then gradually diluted to working concentrations of 1 μM, 100 nM, 10 nM, 1 nM, 10^−1 nM, 10^−2 nM, 10^−3 nM, and H2O.
(§3) 1) Each compound to be tested was mixed with a serum-free medium (containing 0.1% BSA and 0.5 mM IBMX) to obtain a solution at a concentration 2 times the working concentration.
(§4) 2) The cells were digested, suspended in a serum-free medium (containing 0.5 mM IBMX), counted, and placed in a 384-well plate at a density of 1,000 cells/5 μL/well, then 5 μL of the testing compound was added, and the plate was placed in dark for reaction for 30 min.
(§5) 3) After the reaction was completed, a substrate for detecting cAMP was added, and the plate was placed in dark for reaction at the room temperature for 60 min.
(§6) 4) After the reaction was completed, the plate was placed on the Envision2104 multifunctional microplate reader for detection, and the ratio of optical density (OD) values at 665 nm and 615 nm were read out.

GLP-1R = biological target: T2, GLP-1R (Homo sapiens, UniProt P43220); assay: GLP-1 receptor-mediated cAMP production in vitro; type: cell-based; conditions: HEK293 cell line stably expressing GLP-1R
T2 construct: expressed in transfected cells
T2 sequence (P43220 24-463, species assumed): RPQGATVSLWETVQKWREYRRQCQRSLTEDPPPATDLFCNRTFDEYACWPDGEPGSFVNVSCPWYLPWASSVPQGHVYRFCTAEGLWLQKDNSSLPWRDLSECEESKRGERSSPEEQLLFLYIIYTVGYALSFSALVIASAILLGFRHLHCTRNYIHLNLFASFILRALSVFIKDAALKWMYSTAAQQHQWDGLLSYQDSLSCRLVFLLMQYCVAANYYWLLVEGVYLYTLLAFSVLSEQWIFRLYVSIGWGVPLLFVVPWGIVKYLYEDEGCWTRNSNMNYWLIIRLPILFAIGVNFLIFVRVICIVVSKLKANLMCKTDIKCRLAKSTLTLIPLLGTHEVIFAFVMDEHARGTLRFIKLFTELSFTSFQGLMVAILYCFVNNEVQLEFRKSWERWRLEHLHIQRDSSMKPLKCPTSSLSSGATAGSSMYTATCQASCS
Description: as §1, §2, §3, §4, §5, §6

[3] = tested on: diet-induced obesity (DIO) mice; assay: Obese (DIO) model mice, 23 days of successive administration; type: in vivo, C57BL/6J Gpt mice; conditions: for Fasting blood glucose (mmol/L) before the last administration: fasted 16 h; for Fasting blood glucose (mmol/L) before the last administration / TC (total cholesterol) / TG (triglycerides): n=5; for Weight decreasing rate: 30 nmol/kg s.c. every day, without fasting before the last administration compared to day 1; for Examination of liver pathological section: HE stain, 2 animals; for TC (total cholesterol) / TG (triglycerides): after 23 days of administration
Text: C57BL/6J Gpt mice (purchased from GemPharmatech (Jiangsu) Co., Ltd.) (6-8-week-old) were fed with H10060 high-fat diet (purchased from Beijing HFK Bioscience Co., Ltd.) to obtain diet-induced obesity (DIO) models, mice in a blank control group (n=5) were fed with standard diets, and all the mice were fed for 11 weeks after being purchased. One day before the first administration, the mice in the model group were randomly divided into 5 groups according to their weights (within a range of 39.5-49.5 g), i.e., a model control group, a positive control group, and test compound groups (dgc005, dgc016, and dgc020), respectively, 5 mice in each group, which were administered every day by subcutaneous injection. Saline was subcutaneously injected in the blank control group and the model control group every day. The administration was performed for 23 days. The positive control drug and the test compounds were administered at a dose of 30 nmol/kg, and the administration volume for each group was 0.005 mL/g weight. The mice were weighed before each administration, and 72-h food intake was weighed every three days. The mice fasted for 16 h before the last administration, fasting blood glucose levels were determined, blood was sampled from the orbital venous plexus to determine triglycerides and total cholesterol, and the liver was taken out for pathological section observation.
The liver of each C576L/6 mouse in the groups was fixed with 12% formaldehyde and prepared into a specimen, and the tissue block was repaired, dehydrated with graded alcohol, embedded in paraffin, stained with HE, and examined under a light microscope.

[4] = day 4 of administration, 30 nmol/kg s.c. daily
[5] = day 7 of administration, 30 nmol/kg s.c. daily
[6] = day 10 of administration, 30 nmol/kg s.c. daily
[7] = day 13 of administration, 30 nmol/kg s.c. daily

EC50 (GCGR): 0.342 nM
EC50 (GLP-1R): 1.23 nM
Compound: CCCCCCCCCCCCCCCC(=O)N[C@@H](CCC(=O)N[C@@H](CCC(=O)NCCCC[C@H](NC(=O)[C@H](C)NC(=O)[C@H](C)NC(=O)[C@H](CCCNC(=N)N)NC(=O)[C@H](CCC(=O)O)NC(=O)[C@H](CCC(=O)O)NC(=O)[C@H](CC(C)C)NC(=O)[C@H](Cc1ccc(O)cc1)NC(=O)[C@H](CCCCN)NC(=O)[C@H](CO)NC(=O)[C@H](Cc1ccc(O)cc1)NC(=O)[C@H](CC(=O)O)NC(=O)[C@H](CO)NC(=O)[C@@H](NC(=O)[C@H](Cc1ccccc1)NC(=O)[C@@H](NC(=O)CNC(=O)[C@H](CCC(N)=O)NC(=O)C(C)(C)NC(=O)[C@@H](N)Cc1c[nH]cn1)[C@@H](C)O)[C@@H](C)O)C(=O)N[C@@H](CCC(=O)O)C(=O)N[C@@H](Cc1ccccc1)C(=O)N[C@H](C(=O)N[C@@H](C)C(=O)N[C@@H](Cc1c[nH]c2ccccc12)C(=O)N[C@@H](CC(C)C)C(=O)N[C@@H](CCC(=O)O)C(=O)NCC(=O)NCC(N)=O)[C@@H](C)CC)C(=O)O)C(=O)O [dgc016] (HELM PEPTIDE1{H.[Aib].Q.G.T.F.T.S.D.Y.S.K.Y.L.E.E.R.A.A.K.E.F.I.A.W.L.E.G.G.[am]}|PEPTIDE2{[CCCCCCCCCCCCCCCC(=O)[*:2]].[gGlu].[gGlu]}$PEPTIDE1,PEPTIDE2,20:R3-3:R2$$$V2.0; N-terminus assumed)
Fasting blood glucose (mmol/L) before the last administration ([1]; 10 nmol/kg s.c. daily): 4.68 ± 2.12 mmol/L
Blood glucose level (mmol/L) 0.5 h after glucose loading ([1]; 10 nmol/kg s.c. daily): 7.12 ± 0.61**^Δ mmol/L
Glycemic load reduction rate ([1]; 10 nmol/kg s.c. daily): 32.32
Reduction rate of weight without fasting on day 21 compared to day 0 ([1]; 10 nmol/kg s.c. every day): 17.56%
Fasting blood glucose (mmol/L) before the last administration ([1]; 30 nmol/kg s.c. daily): 5.02 ± 2.34 mmol/L
Blood glucose level (mmol/L) 0.5 h after glucose loading ([1]; 30 nmol/kg s.c. daily): 7.48 ± 0.78 mmol/L
Glycemic load reduction rate ([1]; 30 nmol/kg s.c. daily): 28.90
Reduction rate of weight without fasting on day 21 compared to day 0 ([1]; 30 nmol/kg s.c. every day): 19.92%
Blood glucose reduction rate (%) ([2]; 30 nmol/kg single dose): 59.88%
Blood glucose level after glucose loading ([2]; 30 nmol/kg single dose): 6.82 ± 1.78**^ mmol/L
Inhibition of the rise of blood glucose after glucose loading (in words) ([2]; 30 nmol/kg single dose, normal mice): equivalent to that of the positive control drug
Fasting blood glucose level [2]: 3.66 ± 0.77 mmol/L
Fasting blood glucose (mmol/L) before the last administration ([3]; 30 nmol/kg s.c. daily, 23 days): 4.18 ± 0.40 mmol/L
Weight decreasing rate [3]: 29.3%
Effect on triglycerides (in words) ([3]; 23 days, 30 nmol/kg s.c. daily): has a triglyceride reduction action
Examination of liver pathological section ([3]; 23 days, 30 nmol/kg s.c. daily): no obvious pathological changes are seen in portal areas and interstitium
TC (total cholesterol) ([3]; 30 nmol/kg s.c. daily): 3.32 ± 0.73 ^ mmol/L
TG (triglycerides) ([3]; 30 nmol/kg s.c. daily): 0.75 ± 0.10**^ΔΔ mmol/L
72-h food intake [3, 4]: 3.30 g/mouse
72-h food intake [3, 5]: 4.80 g/mouse
72-h food intake [3, 6]: 6.10 g/mouse
72-h food intake [3, 7]: 5.70 g/mouse

EC50 (GCGR): 0.883 nM
EC50 (GLP-1R): 1.51 nM
Compound: CCCCCCCCCCCCCCCC(=O)N[C@@H](CCC(=O)N[C@@H](CCC(=O)NCCCC[C@H](NC(=O)[C@H](C)NC(=O)[C@H](C)NC(=O)[C@H](CCCNC(=N)N)NC(=O)[C@H](CCC(=O)O)NC(=O)[C@H](CCC(=O)O)NC(=O)[C@H](CC(C)C)NC(=O)[C@H](Cc1ccc(O)cc1)NC(=O)[C@H](CCCCN)NC(=O)[C@H](CO)NC(=O)[C@H](Cc1ccc(O)cc1)NC(=O)[C@H](CC(=O)O)NC(=O)[C@H](CO)NC(=O)[C@@H](NC(=O)[C@H](Cc1ccccc1)NC(=O)[C@@H](NC(=O)CNC(=O)[C@H](CCC(N)=O)NC(=O)C(C)(C)NC(=O)[C@@H](N)Cc1c[nH]cn1)[C@@H](C)O)[C@@H](C)O)C(=O)N[C@@H](CCC(=O)O)C(=O)N[C@@H](Cc1ccccc1)C(=O)N[C@H](C(=O)N[C@@H](C)C(=O)N[C@@H](Cc1c[nH]c2ccccc12)C(=O)N[C@@H](CC(C)C)C(=O)N[C@@H](CCC(=O)O)C(=O)NCC(=O)N[C@@H](CCC(=O)O)C(=O)NCC(N)=O)[C@@H](C)CC)C(=O)O)C(=O)O [dgc020] (HELM PEPTIDE1{H.[Aib].Q.G.T.F.T.S.D.Y.S.K.Y.L.E.E.R.A.A.K.E.F.I.A.W.L.E.G.E.G.[am]}|PEPTIDE2{[CCCCCCCCCCCCCCCC(=O)[*:2]].[gGlu].[gGlu]}$PEPTIDE1,PEPTIDE2,20:R3-3:R2$$$V2.0; N-terminus assumed)
Blood glucose reduction rate (%) ([2]; 30 nmol/kg single dose): 42.24%
Blood glucose level after glucose loading ([2]; 30 nmol/kg single dose): 9.82 ± 2.06 mmol/L
Fasting blood glucose level [2]: 4.24 ± 0.63 mmol/L
Fasting blood glucose (mmol/L) before the last administration ([3]; 30 nmol/kg s.c. daily, 23 days): 4.78 ± 0.46 mmol/L
Weight decreasing rate [3]: 25.0%
Examination of liver pathological section ([3]; 23 days, 30 nmol/kg s.c. daily): no obvious pathological changes are seen in portal areas and interstitium
TC (total cholesterol) ([3]; 30 nmol/kg s.c. daily): 3.62 ± 0.84 mmol/L
TG (triglycerides) ([3]; 30 nmol/kg s.c. daily): 0.88 ± 0.28^Δ mmol/L
72-h food intake [3, 4]: 3.50 g/mouse
72-h food intake [3, 5]: 4.50 g/mouse
72-h food intake [3, 6]: 5.70 g/mouse
72-h food intake [3, 7]: 5.50 g/mouse
